From ChEMBL document CHEMBL1130087, “Phosphodiester amidates of unsaturated nucleoside analogues: synthesis and anti-HIV activity” (J Med Chem, 1997)

Columns and labels:
liver esterase = experiment: Half-life catalyzed by Pig Liver Esterase; format: ADME, Sus scrofa
ATH-8 cell line = experiment: tested for cytotoxicity of HIV-1 replication in ATH-8 cells; format: functional, Homo sapiens
[1] = biological target: Human immunodeficiency virus 1; experiment: tested for its anti-HIV activity.

SMILES	half-life (liver esterase)	EC50 [1]	Cytotoxicity (ATH-8 cell line)
COC(=O)C(C)NP(=O)(OC/C=C/Cn1cnc2c(N)ncnc21)Oc1ccccc1 (configuration not stated)	3430 min	–	>10 µM
Nc1ncnc2c1ncn2C/C=C/CCOCP(=O)(O)O	–	9 µM	–

Now from value to compound, other results behind:

half-life (liver esterase)	EC50 [1]	SMILES	Cytotoxicity (ATH-8 cell line)
3500 min	–	COC(=O)C(C)NP(=O)(OC/C=C\Cn1cnc2c(O)ncnc21)Oc1ccccc1 (configuration not stated)	–
438 min	–	COC(=O)C(C)NP(=O)(OCC=C=Cn1cnc2c(N)ncnc21)Oc1ccccc1 (configuration not stated)	–
2610 min	–	COC(=O)C(C)NP(=O)(OC/C=C\Cn1cnc2c(N)ncnc21)Oc1ccccc1 (configuration not stated)	–
510 min	–	COC(=O)C(C)NP(=O)(OCC=C=Cn1cnc2c(O)ncnc21)Oc1ccccc1 (configuration not stated)	–
